IC50 data for 28 compounds are collected here from patent publication US20220372040A1, “METTL3 MODULATORS” (Accent Therapeutics, Inc., priority 2020, published 2022).

Where two headings read alike, the source gives them in different places.

Format in all cases: biochemical
The target of one experiment is T1, METTL16 (Homo sapiens, UniProt Q86W50).
T1 sequence (Q86W50 1-562): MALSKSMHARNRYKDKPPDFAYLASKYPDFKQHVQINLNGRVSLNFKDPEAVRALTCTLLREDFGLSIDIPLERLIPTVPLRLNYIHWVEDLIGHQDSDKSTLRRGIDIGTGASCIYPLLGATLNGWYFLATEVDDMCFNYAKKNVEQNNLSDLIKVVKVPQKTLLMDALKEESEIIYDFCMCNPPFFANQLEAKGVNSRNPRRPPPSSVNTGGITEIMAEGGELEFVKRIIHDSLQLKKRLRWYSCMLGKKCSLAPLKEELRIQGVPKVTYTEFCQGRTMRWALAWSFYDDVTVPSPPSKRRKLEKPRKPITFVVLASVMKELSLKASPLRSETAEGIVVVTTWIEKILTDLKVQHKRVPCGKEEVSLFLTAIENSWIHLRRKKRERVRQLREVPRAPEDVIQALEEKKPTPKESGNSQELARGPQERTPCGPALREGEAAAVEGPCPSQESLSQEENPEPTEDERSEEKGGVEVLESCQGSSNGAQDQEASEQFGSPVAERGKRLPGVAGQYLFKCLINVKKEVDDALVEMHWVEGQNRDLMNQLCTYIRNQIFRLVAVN
Briefly: METTL16 assay (3H-SAM flashplate scintillation). The note with it: METTL16 100 nM, RNA 50 nM, 3H-SAM 200 nM, SAM 800 nM, 20 min. In short, it runs like this:
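Radiometric methyltransferase reaction at ambient temperature in 20 mM HEPES pH 7.5, 50 mM KCl, 1 mM DTT, with 100 nM enzyme preincubated 5 min with compound. It was started with 50 nM 3′-biotinylated RNA, 200 nM 3H-SAM plus 800 nM cold SAM, run 20 min, then quenched with excess cold SAM. Product was captured on streptavidin flashplates and scintillation-counted.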

For the next experiment, the target named is METTL3/METTL14 (Homo sapiens, UniProt Q86U44). Briefly: METTL3-14 standard enzyme assay (3H-SAM flashplate scintillation). The note with it: METTL3/METTL14 2.5 nM, RNA 100 nM, 3H-SAM 100 nM, 30 min. In short, it runs like this:
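Radiometric methylation readout: biotinylated RNA substrate UCUGGACUAAA and 3H-SAM, each 100 nM final, reacted 30 min at ambient temperature with 2.5 nM enzyme complex after 5 min compound preincubation (HEPES pH 7.5 buffer, KCl, MgCl2, DTT). Excess unlabelled SAM (15 μM) stopped reactions before streptavidin flashplate capture.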

A further experiment has as its target PRMT5-MEP50 (Homo sapiens, UniProt O14744). In words: PRMT5 assay (3H-SAM flashplate scintillation). The note with it: PRMT5-MEP50 2.5 nM, histone H4 peptide 100 nM, 3H-SAM 250 nM, 60 min. In short, it runs like this: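 Radiometric methyltransferase read-out: after 60 min reaction, excess unlabelled SAM (15 μM) stops turnover and biotinylated H4 peptide (100 nM) carrying 3H-methyl from 250 nM 3H-SAM is captured on streptavidin flashplates (2 h, 25° C) for scintillation counting. Enzyme, 2.5 nM PRMT5-MEP50, was preincubated 5 min with compound in pH 8.0 Tris buffer with DTT and Tween.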

Another experiment addresses METTL1/WDR4 (Homo sapiens, UniProt Q9UBP6). In words: METTL1 assay (3H-SAM flashplate scintillation). In short, it runs like this: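 Radiometric methyltransfer by METTL1/WDR4 (6.25 nM f.c., 5 min preincubation) at ambient temperature in HEPES pH 7.5, KCl, MgCl2, DTT; started with 25 nM 3′-biotinylated RNA and 60 nM 3H-SAM, run 20 min, quenched with 15 μM cold SAM. Product captured on streptavidin flashplates (2 h, 25° C), counted by scintillation.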

The mark [1] stands for this setting: METTL1/WDR4 6.25 nM, RNA 25 nM, 3H-SAM 60 nM, 20 min, read-out: METTL1 IC50.

METTL3/METTL14, sequence (Q86U44 whole entry, species assumed): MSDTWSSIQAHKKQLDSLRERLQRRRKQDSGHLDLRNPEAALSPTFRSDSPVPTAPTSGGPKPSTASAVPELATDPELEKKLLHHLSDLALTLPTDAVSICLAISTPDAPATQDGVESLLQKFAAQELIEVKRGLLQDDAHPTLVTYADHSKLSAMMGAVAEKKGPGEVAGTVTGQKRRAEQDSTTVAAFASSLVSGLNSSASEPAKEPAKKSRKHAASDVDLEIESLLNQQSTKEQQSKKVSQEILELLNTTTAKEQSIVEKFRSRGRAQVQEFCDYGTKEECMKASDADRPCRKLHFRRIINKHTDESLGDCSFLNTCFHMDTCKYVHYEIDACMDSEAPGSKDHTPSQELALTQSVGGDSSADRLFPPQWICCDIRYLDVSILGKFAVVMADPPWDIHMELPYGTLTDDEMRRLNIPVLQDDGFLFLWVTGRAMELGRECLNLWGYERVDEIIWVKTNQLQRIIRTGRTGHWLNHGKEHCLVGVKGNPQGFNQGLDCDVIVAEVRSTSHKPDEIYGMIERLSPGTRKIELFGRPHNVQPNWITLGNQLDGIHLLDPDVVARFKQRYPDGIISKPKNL
METTL3/METTL14, sequence (Q9HCE5 whole entry partner, species assumed): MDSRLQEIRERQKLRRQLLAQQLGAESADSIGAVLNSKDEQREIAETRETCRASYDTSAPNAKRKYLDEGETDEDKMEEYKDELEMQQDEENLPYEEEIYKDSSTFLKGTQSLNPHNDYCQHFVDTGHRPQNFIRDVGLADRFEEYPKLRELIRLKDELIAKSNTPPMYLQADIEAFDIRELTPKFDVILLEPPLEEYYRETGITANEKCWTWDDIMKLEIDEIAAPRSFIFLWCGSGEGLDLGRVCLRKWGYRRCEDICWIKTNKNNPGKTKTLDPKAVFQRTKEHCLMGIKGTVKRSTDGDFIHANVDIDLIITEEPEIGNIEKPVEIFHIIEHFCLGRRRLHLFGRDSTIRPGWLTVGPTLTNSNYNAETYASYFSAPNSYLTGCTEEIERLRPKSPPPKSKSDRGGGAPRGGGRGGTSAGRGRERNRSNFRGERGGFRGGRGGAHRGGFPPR
PRMT5-MEP50, sequence (O14744 whole entry): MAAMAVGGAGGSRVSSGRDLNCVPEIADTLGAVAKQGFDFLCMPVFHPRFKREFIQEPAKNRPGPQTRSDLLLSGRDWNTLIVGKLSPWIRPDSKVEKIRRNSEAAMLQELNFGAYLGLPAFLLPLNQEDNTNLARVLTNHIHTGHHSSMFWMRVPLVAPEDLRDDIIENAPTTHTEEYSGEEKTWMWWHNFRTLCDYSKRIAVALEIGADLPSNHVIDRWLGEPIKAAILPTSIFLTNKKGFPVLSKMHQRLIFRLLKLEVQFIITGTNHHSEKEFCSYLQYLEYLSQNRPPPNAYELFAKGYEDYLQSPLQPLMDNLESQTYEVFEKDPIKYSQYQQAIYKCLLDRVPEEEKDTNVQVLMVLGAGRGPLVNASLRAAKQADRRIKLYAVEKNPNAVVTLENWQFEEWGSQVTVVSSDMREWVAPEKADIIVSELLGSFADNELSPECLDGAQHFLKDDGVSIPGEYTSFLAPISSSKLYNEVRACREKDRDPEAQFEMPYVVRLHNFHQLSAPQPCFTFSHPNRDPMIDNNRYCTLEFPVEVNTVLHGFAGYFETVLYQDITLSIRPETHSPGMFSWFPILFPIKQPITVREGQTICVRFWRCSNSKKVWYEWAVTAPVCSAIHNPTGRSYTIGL
PRMT5-MEP50, sequence (Q9BQA1 whole entry partner): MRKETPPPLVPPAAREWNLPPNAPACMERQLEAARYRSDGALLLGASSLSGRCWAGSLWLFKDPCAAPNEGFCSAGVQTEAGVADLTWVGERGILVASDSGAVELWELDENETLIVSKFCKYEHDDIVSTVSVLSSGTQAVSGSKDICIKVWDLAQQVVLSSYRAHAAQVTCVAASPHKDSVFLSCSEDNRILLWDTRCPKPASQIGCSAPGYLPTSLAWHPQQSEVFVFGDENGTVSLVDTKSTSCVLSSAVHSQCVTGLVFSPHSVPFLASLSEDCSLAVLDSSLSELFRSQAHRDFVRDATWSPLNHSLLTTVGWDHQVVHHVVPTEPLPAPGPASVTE
METTL1/WDR4, sequence (Q9UBP6 whole entry, species assumed): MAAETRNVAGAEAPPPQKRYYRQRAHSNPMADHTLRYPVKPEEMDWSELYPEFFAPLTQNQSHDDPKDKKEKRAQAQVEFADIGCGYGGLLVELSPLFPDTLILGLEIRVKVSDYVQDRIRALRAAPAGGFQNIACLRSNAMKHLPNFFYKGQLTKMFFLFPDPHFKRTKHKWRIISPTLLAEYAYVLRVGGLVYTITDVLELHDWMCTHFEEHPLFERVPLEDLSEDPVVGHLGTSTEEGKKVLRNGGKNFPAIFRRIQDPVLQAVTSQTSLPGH
METTL1/WDR4, sequence (P57081 whole entry partner, species assumed): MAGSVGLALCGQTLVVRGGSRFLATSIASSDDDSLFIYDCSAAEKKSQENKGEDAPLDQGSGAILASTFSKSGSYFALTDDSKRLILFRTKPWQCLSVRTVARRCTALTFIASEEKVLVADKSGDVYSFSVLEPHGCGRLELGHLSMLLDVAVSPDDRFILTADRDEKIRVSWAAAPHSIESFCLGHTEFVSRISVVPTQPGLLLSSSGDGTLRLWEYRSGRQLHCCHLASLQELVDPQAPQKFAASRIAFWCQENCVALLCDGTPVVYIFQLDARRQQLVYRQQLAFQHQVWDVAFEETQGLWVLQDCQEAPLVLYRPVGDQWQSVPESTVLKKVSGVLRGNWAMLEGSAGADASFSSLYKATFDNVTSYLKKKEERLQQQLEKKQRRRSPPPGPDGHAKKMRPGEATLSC

What is called IC50 is the concentration at which inhibition is half-maximal. In the case of `CNc1ccc2ccc(OCc3cncc(-n4cc(CC5CC5)c5c(N)ncnc54)c3)cc2n1` [Compound I-29], the IC50 was above 1000 nM on METTL16, below 10 nM against METTL3/METTL14, above 1000 nM at PRMT5-MEP50 and above 1000 nM at METTL1/WDR4 (setting [1]).
Consider `CNc1ccc2ccc(CCc3cncc(-n4ccc5c(N)ncnc54)c3)cc2n1` [Compound I-30], for which the IC50 was above 1000 nM against METTL16, 10 to 100 nM against METTL3/METTL14, above 1000 nM against PRMT5-MEP50 and above 1000 nM at METTL1/WDR4 (setting [1]).
Regarding `CNc1ccc2ccc(OCc3cc(CO)cc(-n4cc(Cl)c5c(N)ncnc54)c3)cc2n1` [Compound I-34], the IC50 is above 1000 nM against METTL16, below 10 nM at METTL3/METTL14, above 1000 nM against PRMT5-MEP50 and above 1000 nM on METTL1/WDR4 (setting [1]).
Consider `CNc1ccc2ccc(OCc3cncc(-n4cc(-c5ccnn5C)c5c(N)ncnc54)c3)cc2n1` [Compound I-35], for which the IC50 on METTL16 was above 1000 nM; at METTL3/METTL14, below 10 nM; against PRMT5-MEP50, above 1000 nM; at METTL1/WDR4 (setting [1]) it was above 1000 nM.
In the case of `CNc1ccc2ccc(OCc3cncc(-n4c(C)cc5c(N)ncnc54)c3)cc2n1` [Compound I-36], the IC50 against METTL16 was above 1000 nM; against METTL3/METTL14, 10 to 100 nM; against PRMT5-MEP50, above 1000 nM; at METTL1/WDR4 (setting [1]), above 1000 nM.
Regarding `CNc1ccc2ccc(OCc3cncc(-n4cc(C5CCCC5)c5c(N)ncnc54)c3)cc2n1` [Compound I-58], the results for the IC50 on METTL16, at METTL3/METTL14 and against PRMT5-MEP50 were above 1000 nM, below 10 nM and above 1000 nM, respectively.
On to `CCNc1ccc2ccc(OCc3cccc(-n4cc(Cl)c5c(N)ncnc54)c3)cc2n1` [Compound I-61], for which the IC50 against METTL16 is above 1000 nM; at METTL3/METTL14 it was 10 to 100 nM; against PRMT5-MEP50 it was above 1000 nM; on METTL1/WDR4 (setting [1]), above 1000 nM.
As for `CNc1ccc2cc(CCc3cccc(-n4cc(Cl)c5c(N)ncnc54)c3)ccc2n1` [Compound I-70], the IC50 at METTL16 was above 1000 nM; at METTL3/METTL14, 100 to 1000 nM; at PRMT5-MEP50 it was above 1000 nM; at METTL1/WDR4 (setting [1]) it was above 1000 nM.
For the compound `CNc1ccc2ccc(OCc3cncc(-n4cc(Cl)c5c(N)ncnc54)c3)cc2n1` [Compound I-74, 7-((5-(4-amino-5-chloro-7H-pyrrolo[2,3-d]pyrimidin-7-yl)pyridin-3-yl)methoxy)-N-methylquinolin-2-amine], the IC50 was above 1000 nM on METTL16, below 10 nM at METTL3/METTL14, above 1000 nM against PRMT5-MEP50 and above 1000 nM on METTL1/WDR4 (setting [1]).
Turning to `CNc1ccc2ccc(OCc3cc(Br)cc(-n4cc(Cl)c5c(N)ncnc54)c3)cc2n1` [Compound I-75], the IC50 at METTL16 is above 1000 nM; against METTL3/METTL14 it was 100 to 1000 nM; on PRMT5-MEP50, above 1000 nM; on METTL1/WDR4 (setting [1]), above 1000 nM.
Regarding `CNc1ccc2ccc(OCc3cccc(-n4cc(Cl)c5c(N)ncnc54)c3)cc2n1` [Compound I-87], the IC50 is above 1000 nM against METTL16, 10 to 100 nM against METTL3/METTL14, above 1000 nM at PRMT5-MEP50 and above 1000 nM at METTL1/WDR4 (setting [1]).
In the case of `Nc1nc2cc(OCc3cncc(-n4ccc5c(N)ncnc54)c3)ccc2cc1Br` [Compound I-111], the IC50 against METTL16, against METTL3/METTL14, on PRMT5-MEP50 and on METTL1/WDR4 (setting [1]) was above 1000 nM in each case.
As to `CNc1ccc2ccc(OCc3cncc(-n4cc([C@H]5CCCO5)c5c(N)ncnc54)c3)cc2n1` [Compound I-112], the IC50 against METTL16 is above 1000 nM; on METTL3/METTL14 it was below 10 nM; against PRMT5-MEP50, above 1000 nM; against METTL1/WDR4, above 1000 nM.
Regarding `CNc1ccc2ccc(OCc3cncc(-n4cc([C@@H]5CCCO5)c5c(N)ncnc54)c3)cc2n1` [Compound I-113], the IC50 against METTL16 is above 1000 nM; at METTL3/METTL14 it was below 10 nM; at PRMT5-MEP50, above 1000 nM; at METTL1/WDR4 it was above 1000 nM.
With `Cn1ccc(-c2cn(-c3cncc(CCc4ccc5ccc(N)nc5c4)c3)c3ncnc(N)c23)n1` [Compound I-114], the IC50 on METTL16 was above 1000 nM; against METTL3/METTL14 it was below 10 nM; against PRMT5-MEP50 it was above 1000 nM; at METTL1/WDR4 (setting [1]), above 1000 nM.
As to `CCc1cc(NCCOC)c2ccc(CCc3cncc(-n4cc(-c5ccn(C)n5)c5c(N)ncnc54)c3)cc2n1` [Compound I-115], the IC50 was above 1000 nM against METTL16, below 10 nM at METTL3/METTL14, above 1000 nM against PRMT5-MEP50 and above 1000 nM on METTL1/WDR4.
For the compound `CNc1ccc2ccc(CCc3cncc(-n4cc(F)c5c(N)ncnc54)c3)cc2n1` [Compound I-116], the IC50 is above 1000 nM at METTL16, below 10 nM against METTL3/METTL14, above 1000 nM at PRMT5-MEP50 and above 1000 nM at METTL1/WDR4 (setting [1]).
`CCc1cc(N(C)CCOC)c2ccc(CCc3cncc(-n4cc(-c5ccn(C)n5)c5c(N)ncnc54)c3)cc2n1` [Compound I-117]: the 50% inhibitory concentration (IC50) was above 1000 nM on METTL16, below 10 nM against METTL3/METTL14, above 1000 nM against PRMT5-MEP50 and above 1000 nM on METTL1/WDR4.
`CCc1cc(N2CCC(F)(F)CC2)c2ccc(OCc3cncc(-n4ccc5c(N)ncnc54)c3)cc2n1` [Compound I-118]: the IC50 is above 1000 nM at METTL16, below 10 nM against METTL3/METTL14, above 1000 nM on PRMT5-MEP50 and above 1000 nM on METTL1/WDR4 (setting [1]).
On to `CNc1ccc2ccc(OCc3cncc(-n4cc(C(C)C5CC5)c5c(N)ncnc54)c3)cc2n1` (stereo not drawn) [Compound I-120], for which the IC50 is above 1000 nM against METTL16, below 10 nM against METTL3/METTL14, above 1000 nM against PRMT5-MEP50 and above 1000 nM at METTL1/WDR4 (setting [1]).
For `CCc1cc(N2CCNCC2)c2ccc(OCc3cncc(-n4cc(-c5ccn(C)n5)c5c(N)ncnc54)c3)cc2n1` [Compound I-121], the IC50 is above 1000 nM against METTL16, below 10 nM at METTL3/METTL14, above 1000 nM on PRMT5-MEP50 and above 1000 nM at METTL1/WDR4 (setting [1]).
Take `CCc1cc(NC)c2ccc(CCc3cncc(-n4cc(-c5ccn(C)n5)c5c(N)ncnc54)c3)cc2n1` [Compound I-122]: the IC50 is above 1000 nM against METTL16, below 10 nM against METTL3/METTL14, above 1000 nM on PRMT5-MEP50 and above 1000 nM at METTL1/WDR4 (setting [1]).
In the case of `Cn1ccc(-c2cn(-c3cncc(CCc4ccc5cc(Br)c(N)nc5c4)c3)c3ncnc(N)c23)n1` [Compound I-123], the IC50 on METTL16, on METTL3/METTL14, at PRMT5-MEP50 and at METTL1/WDR4 (setting [1]) was above 1000 nM throughout.
As for `C[C@@H]1CCN1c1ccc2ccc(OCc3cncc(-n4cc(C5CCCC5)c5c(N)ncnc54)c3)cc2n1` [Compound I-124], the IC50 against METTL16 was above 1000 nM; at METTL3/METTL14, 10 to 100 nM; on PRMT5-MEP50 it was above 1000 nM; on METTL1/WDR4 (setting [1]) it was above 1000 nM.
Turning to `Nc1ncnc2c1c(C1CCCO1)cn2-c1cncc(CCc2ccc3ccc(N4CCC4)nc3c2)c1` (stereo not drawn) [Compound I-126], the IC50 against METTL16 was above 1000 nM; on METTL3/METTL14, below 10 nM; at PRMT5-MEP50, above 1000 nM; on METTL1/WDR4 (setting [1]), above 1000 nM.
For `CCc1cc(NCCCN(C)C)c2ccc(CCc3cncc(-n4ccc5c(N)ncnc54)c3)cc2n1` [Compound I-127], the IC50 against METTL16 is above 1000 nM; at METTL3/METTL14, below 10 nM; at PRMT5-MEP50 it was above 1000 nM; on METTL1/WDR4 (setting [1]) it was above 1000 nM.
On to `CCNc1ccc2ccc(OCc3cncc(-n4cc(-c5ccn(C)n5)c5c(N)ncnc54)c3)cc2n1` [Compound I-128], for which the IC50 was above 1000 nM at METTL16, below 10 nM against METTL3/METTL14, above 1000 nM against PRMT5-MEP50 and above 1000 nM on METTL1/WDR4 (setting [1]).
As for `CNc1ccc2ccc(OCc3cncc(-n4cc(-c5ccc(C)o5)c5c(N)ncnc54)c3)cc2n1` [Compound I-234], the IC50 at METTL16 was above 1000 nM; against METTL3/METTL14, below 10 nM; against PRMT5-MEP50, above 1000 nM; on METTL1/WDR4 (setting [1]) it was above 1000 nM.
